From patent publication US20070053062A1, “Optical part and projection type display apparatus using same” (priority 2005, published 2007)

Key:
[1] = system: mildews; test: Mildew proofness of lenses with anti-reflecting membrane containing mildew proofing agent, left to stand in thermo-hygrostat; type: cell-based; set-up: key: ∘: Growing of mildews was not recognized by visual inspection and inspection with a 5x magnifier.; Growing of mildews was not recognized by visual inspection, but recognized by inspection with a 5x magnifier.; xx: Growing of mildews was recognized by both the visual inspection and the inspection with a 5x magnifier; details: acrylic resin lens, anti-reflecting membrane containing the agent; 1 week in thermo-hygrostat of 40° C. and 95% RH; visual inspection and 5× magnifier
Protocol: Anti-reflecting paints containing the mildew proofing agentwere prepared by mixing a silica sol solution as a binder (containing 2-propanol as a main solvent and 10% by weight of an alkoxysilane polymer) (2 parts by weight), a 5 wt % dispersion of silicon dioxide having an average length of major axis of about 60 nm as inorganic oxide particles (35 parts by weight), 2-propanol (100 parts by weight), and a 2 wt % 2-propanol solution of the mildew proofing agent (2 parts by weight). Here, 2-propanol was used as the solvent because most of the mildew proofing agents only partially dissolve in water.
Next, the same lens of acrylic resin as used in Example 1 as one of the optical parts of the present invention was cleaned in the same manner as in Example 1, and thereafter the lens was coated with the anti-reflecting paint containing the mildew proofing agent in place of the anti-reflecting paint used in Example 1, followed by heating the coat. In this case, the anti-reflecting paint was also coated on the back surface of the lens as in Example 1. Thus, a lens having an anti-reflecting membrane containing the mildew proofing agent was produced.
Next, in order to confirm whether these lenses had mildew proofness or not, these lenses were left to stand for 1 week in a thermo-hygrostat of 40° C. and 95% RH. For comparison, the lens having the anti-reflecting membrane containing no mildew proofing agent was also left to stand together. After 1 week, it was confirmed by visual inspection and inspection with a 5× magnifier whether mildews grew or not.

[2] = system: mildews; test: Mildew proofness of the lenses left to stand in thermo-hygrostat after dipping in hot water; type: cell-based; set-up: key to Growing of mildew: ∘: Growing of mildews was not recognized by visual inspection and inspection with a 5x magnifier.; Growing of mildews was not recognized by visual inspection, but recognized by inspection with a 5x magnifier.; xx: Growing of mildews was recognized by both the visual inspection and the inspection with a 5x magnifier; details: lens dipped in hot water at 40° C. for 1 hour; for Growing of mildews (in words): then 1 week at 40° C. and 95% RH; for Growing of mildew: then 1 week in thermo-hygrostat of 40° C. and 95% RH, visual inspection and 5× magnifier
Protocol: Then, the lenses having the anti-reflecting membrane containing the mildew proofing agent were dipped in hot water at 40° C. for 1 hour and thereafter were left to stand for 1 week in a thermo-hygrostat of 40° C. and 95% RH. After lapse of 1 week, it was examined by visual inspection and inspection with a 5× magnifier whether mildews grew or not.
In compounds 13, 16, 18 and 20, the elemental proportion of nitrogen was 6% by weight or more.

| Compound | Growing of mildew [1] | Growing of mildews (in words) [2] | Growing of mildew [2] |
| --- | --- | --- | --- |
| CCCCCCCC[n+]1ccccc1 [Compound 13] | ∘ | Growing of a few mildews was seen | x |
| CCCCCCCCCC[n+]1ccccc1 [Compound 14] | ∘ |  | ∘ |
| CCCC[n+]1ccccc1 [Compound 16] | ∘ | Growing of a few mildews was seen | x |
| CCCCCC[n+]1ccccc1 [Compound 17] | ∘ |  | ∘ |
| C[n+]1ccccc1 [Compound 18] | ∘ | Growing of a few mildews was seen | x |
| CC(C)(C)OC(=O)Nc1ccc(Cl)cc1 [Compound 27] | ∘ |  |  |
| CC(C)(C)OC(=O)Nc1ccc(I)cc1 [Compound 28] | ∘ |  |  |
| O=C(Nc1ccc(Cl)cc1)Oc1ccccc1 [Compound 29] | ∘ |  |  |
